Article PMC7156458, “Synthetic biology based construction of biological activity-related library of fungal decalin-containing diterpenoid pyrones” (Nature Communications, 2020)

Biological target: Aβ42 (Homo sapiens, UniProt P05067)
Assay: Th-T (thioflavin-T) assay of Aβ42 aggregation
Format: biochemical
Details: for Th-T fluorescence, mean of three wells: Aβ42 aggregation time course

Sequence of Aβ42 (P05067 672-713): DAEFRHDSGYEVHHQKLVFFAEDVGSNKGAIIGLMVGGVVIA

C=C1CCC2C(C)(CCC=C(C)C)C(O)CCC2(C)C1Cc1c(OC)oc(CO)c(C)c1=O (stereo not drawn) [Compound 12]
delay of the nucleation phase: no delay | elongation of Aβ42: partly suppressed the elongation of Aβ42 | first Th-T assay result (Aβ42 (10 μM) ± DPPs (20 μM), room temperature): suppressed Aβ42 | Th-T fluorescence, mean of three wells (reading M117): 2.054 | Th-T fluorescence, mean of three wells (reading M118): 2.063 | Th-T fluorescence, mean of three wells (reading M119): 2.053 | Th-T fluorescence, mean of three wells (reading M120): 2.05 | Th-T fluorescence, mean of three wells (reading M121): 2.047 | Th-T fluorescence, mean of three wells (reading M122): 2.039 | Th-T fluorescence, mean of three wells (reading M123): 2.052 | Th-T fluorescence, mean of three wells (reading M124): 2.0354 | Th-T fluorescence, mean of three wells (reading M125): 2.03 | Th-T fluorescence, mean of three wells (reading M126): 2.03 | Th-T fluorescence, mean of three wells (reading M127): 2.041 | Th-T fluorescence, mean of three wells (reading M128): 2.036 | Th-T fluorescence, mean of three wells (reading M129): 2.023 | Th-T fluorescence, mean of three wells (reading M130): 2.033 | Th-T fluorescence, mean of three wells (Fig. 7a) (column suffix _10, measurement M19): 2.572 | Th-T fluorescence, mean of three wells (Fig. 7a) (column suffix _10, measurement M20): 2.604 | Th-T fluorescence, mean of three wells (Fig. 7a) (column suffix _10, measurement M21): 2.632 | Th-T fluorescence, mean of three wells (Fig. 7a) (column suffix _10, measurement M22): 2.671 | Th-T fluorescence, mean of three wells (Fig. 7a) (column suffix _10, measurement M23): 2.692 | Th-T fluorescence, mean of three wells (Fig. 7a) (column suffix _10, measurement M24): 2.757 | Th-T fluorescence, mean of three wells (Fig. 7a) (column suffix _10, measurement M25): 2.768 | Th-T fluorescence, mean of three wells (Fig. 7a) (column suffix _10, measurement M26): 2.841 | Th-T fluorescence, mean of three wells (Fig. 7a) (column suffix _10, measurement M27): 2.803 | Th-T fluorescence, mean of three wells (Fig. 7a) (column suffix _10, measurement M28): 2.855 | Th-T fluorescence, mean of three wells (Fig. 7a) (column suffix _10, measurement M29): 2.853 | Th-T assay signal, mean of three wells (Fig. 7a) (column suffix _10, reading M1): 0.2279 | Th-T assay signal, mean of three wells (Fig. 7a) (column suffix _10, reading M2): 0.2383 | Th-T assay signal, mean of three wells (Fig. 7a) (column suffix _10, reading M3): 0.2633 | Th-T assay signal, mean of three wells (Fig. 7a) (column suffix _10, reading M4): 0.2928 | Th-T assay signal, mean of three wells (Fig. 7a) (column suffix _10, reading M5): 0.3222 | Th-T assay signal, mean of three wells (Fig. 7a) (column suffix _10, reading M6): 0.3621 | Th-T assay signal, mean of three wells (Fig. 7a) (column suffix _10, reading M7): 0.3868 | Th-T assay signal, mean of three wells (Fig. 7a) (column suffix _10, reading M8): 0.4315 | Th-T assay signal, mean of three wells (Fig. 7a) (column suffix _10, reading M9): 0.4649 | Th-T assay signal, mean of three wells (Fig. 7a) (column suffix _10, reading M10): 0.5209 | Th-T assay signal, mean of three wells (Fig. 7a) (column suffix _10, reading M11): 0.5656 | Th-T assay signal, mean of three wells (Fig. 7a) (column suffix _10, reading M12): 0.6921 | Th-T assay signal, mean of three wells (Fig. 7a) (column suffix _10, reading M13): 1.089 | Th-T assay signal, mean of three wells (Fig. 7a) (column suffix _10, reading M14): 1.582 | Th-T assay signal, mean of three wells (Fig. 7a) (column suffix _10, reading M15): 1.98 | Th-T assay signal, mean of three wells (Fig. 7a) (column suffix _10, reading M16): 2.245 | Th-T assay signal, mean of three wells (Fig. 7a) (column suffix _10, reading M17): 2.406 | Th-T assay signal, mean of three wells (Fig. 7a) (column suffix _10, reading M18): 2.511 | Fig. 7a Th-T reading, mean of three wells (column suffix _10, reading M85): 3.136 | Fig. 7a Th-T reading, mean of three wells (column suffix _10, reading M86): 3.133 | Fig. 7a Th-T reading, mean of three wells (column suffix _10, reading M87): 3.112 | Fig. 7a Th-T reading, mean of three wells (column suffix _10, reading M88): 3.093 | Fig. 7a Th-T reading, mean of three wells (column suffix _10, reading M89): 3.066 | Fig. 7a Th-T reading, mean of three wells (column suffix _10, reading M90): 3.046 | Fig. 7a Th-T reading, mean of three wells (column suffix _10, reading M91): 3.03 | Fig. 7a Th-T reading, mean of three wells (column suffix _10, reading M92): 3.012 | Fig. 7a Th-T reading, mean of three wells (column suffix _10, reading M93): 2.997 | Fig. 7a Th-T reading, mean of three wells (column suffix _10, reading M94): 2.971 | Fig. 7a Th-T reading, mean of three wells (column suffix _10, reading M95): 2.948 | Fig. 7a Th-T reading, mean of three wells (column suffix _10, reading M96): 2.943 | Fig. 7a Th-T reading, mean of three wells (column suffix _10, reading M97): 2.923 | Fig. 7a Th-T reading, mean of three wells (column suffix _10, reading M98): 2.913 | Fig. 7a Th-T reading, mean of three wells (column suffix _10, reading M99): 2.8964 | Fig. 7a Th-T reading, mean of three wells (column suffix _10, reading M100): 2.873 | Fig. 7a Th-T reading, mean of three wells (column suffix _10, reading M101): 2.854 | Fig. 7a Th-T reading, mean of three wells (column suffix _10, reading M102): 2.835 | Fig. 7a Th-T reading, mean of three wells (column suffix _10, reading M103): 2.818 | Fig. 7a Th-T reading, mean of three wells (column suffix _10, reading M104): 2.806 | Fig. 7a Th-T reading, mean of three wells (column suffix _10, reading M105): 2.7797 | Fig. 7a Th-T reading, mean of three wells (column suffix _10, reading M106): 2.769 | Th-T fluorescence, mean of three wells (Fig. 7a) (column suffix _20, measurement M19): 2.538 | Th-T fluorescence, mean of three wells (Fig. 7a) (column suffix _20, measurement M20): 2.543 | Th-T fluorescence, mean of three wells (Fig. 7a) (column suffix _20, measurement M21): 2.5199 | Th-T fluorescence, mean of three wells (Fig. 7a) (column suffix _20, measurement M22): 2.494 | Th-T fluorescence, mean of three wells (Fig. 7a) (column suffix _20, measurement M23): 2.481 | Th-T fluorescence, mean of three wells (Fig. 7a) (column suffix _20, measurement M24): 2.476 | Th-T fluorescence, mean of three wells (Fig. 7a) (column suffix _20, measurement M25): 2.43 | Th-T fluorescence, mean of three wells (Fig. 7a) (column suffix _20, measurement M26): 2.427 | Th-T fluorescence, mean of three wells (Fig. 7a) (column suffix _20, measurement M27): 2.441 | Th-T fluorescence, mean of three wells (Fig. 7a) (column suffix _20, measurement M28): 2.387 | Th-T fluorescence, mean of three wells (Fig. 7a) (column suffix _20, measurement M29): 2.411 | Th-T fluorescence, mean of three wells (Fig. 7a) (column suffix _20, measurement M30): 2.389 | Th-T assay signal, mean of three wells (Fig. 7a) (column suffix _20, reading M1): 0.2949 | Th-T assay signal, mean of three wells (Fig. 7a) (column suffix _20, reading M2): 0.3314 | Th-T assay signal, mean of three wells (Fig. 7a) (column suffix _20, reading M3): 0.3699 | Th-T assay signal, mean of three wells (Fig. 7a) (column suffix _20, reading M4): 0.6391 | Th-T assay signal, mean of three wells (Fig. 7a) (column suffix _20, reading M5): 1.147 | Th-T assay signal, mean of three wells (Fig. 7a) (column suffix _20, reading M6): 1.822 | Th-T assay signal, mean of three wells (Fig. 7a) (column suffix _20, reading M7): 2.22 | Th-T assay signal, mean of three wells (Fig. 7a) (column suffix _20, reading M8): 2.421 | Th-T assay signal, mean of three wells (Fig. 7a) (column suffix _20, reading M9): 2.522 | Th-T assay signal, mean of three wells (Fig. 7a) (column suffix _20, reading M10): 2.562 | Th-T assay signal, mean of three wells (Fig. 7a) (column suffix _20, reading M11): 2.583 | Th-T assay signal, mean of three wells (Fig. 7a) (column suffix _20, reading M12): 2.606 | Th-T assay signal, mean of three wells (Fig. 7a) (column suffix _20, reading M13): 2.583 | Th-T assay signal, mean of three wells (Fig. 7a) (column suffix _20, reading M14): 2.612 | Th-T assay signal, mean of three wells (Fig. 7a) (column suffix _20, reading M15): 2.602 | Th-T assay signal, mean of three wells (Fig. 7a) (column suffix _20, reading M16): 2.5699 | Th-T assay signal, mean of three wells (Fig. 7a) (column suffix _20, reading M17): 2.585 | Th-T assay signal, mean of three wells (Fig. 7a) (column suffix _20, reading M18): 2.567 | Fig. 7a Th-T reading, mean of three wells (column suffix _20, reading M85): 2.083 | Fig. 7a Th-T reading, mean of three wells (column suffix _20, reading M86): 2.058 | Fig. 7a Th-T reading, mean of three wells (column suffix _20, reading M87): 2.078 | Fig. 7a Th-T reading, mean of three wells (column suffix _20, reading M88): 2.109 | Fig. 7a Th-T reading, mean of three wells (column suffix _20, reading M89): 2.106 | Fig. 7a Th-T reading, mean of three wells (column suffix _20, reading M90): 2.088 | Fig. 7a Th-T reading, mean of three wells (column suffix _20, reading M91): 2.094 | Fig. 7a Th-T reading, mean of three wells (column suffix _20, reading M92): 2.104 | Fig. 7a Th-T reading, mean of three wells (column suffix _20, reading M93): 2.083 | Fig. 7a Th-T reading, mean of three wells (column suffix _20, reading M94): 2.114 | Fig. 7a Th-T reading, mean of three wells (column suffix _20, reading M95): 2.102 | Fig. 7a Th-T reading, mean of three wells (column suffix _20, reading M96): 2.08 | Fig. 7a Th-T reading, mean of three wells (column suffix _20, reading M97): 2.11 | Fig. 7a Th-T reading, mean of three wells (column suffix _20, reading M98): 2.085 | Fig. 7a Th-T reading, mean of three wells (column suffix _20, reading M99): 2.135 | Fig. 7a Th-T reading, mean of three wells (column suffix _20, reading M100): 2.117
